Measured values published in ChEMBL document CHEMBL3120136 (J Med Chem, 2014).
Values after ≈ are worked out from the molar mass of the structure shown.

Tests used:
[1] = Metabolic stability in rat hepatocytes assessed as extraction ratio at 1 uM; format: ADME, cell-based, Hepatocyte; settings: read-out: ERH
[2] = Metabolic stability in human hepatocytes assessed as extraction ratio at 1 uM; format: ADME, cell-based, Hepatocyte; settings: read-out: ERH
[3] = Aqueous solubility of the compound at pH 6.5 by modified shake-flask method; format: physicochemical
Hepatitis C virus = assay: Antiviral activity against Hepatitis C virus infected in human HuH7 cells assessed as inhibition of HCV subgenomic replicon replication after 72 hrs by ELISA; format: functional, organism-based, Hepacivirus hominis, Huh-7; settings: Hepatitis C virus, Huh-7, 72 h; read-out: EC50
[4] = Inhibition of Hepatitis C virus full-length NS3/4A protease assessed as quenched-fluorogenic RET-S1 substrate cleavage incubated for 10 mins prior to substrate addition by FRET analysis; set-up: species or system Hepacivirus hominis
Rattus norvegicus = assay: Volume of distribution at steady state in Sprague-Dawley rat at 1 mg/kg, iv by HPLC-MS/MS analysis; settings: in vivo
[5] = Lipophilicity, log D of the compound; format: physicochemical; settings: octanol/water
[6] = Metabolic stability in cynomolgus monkey hepatocytes assessed as extraction ratio at 1 uM; format: ADME, cell-based, Macaca fascicularis, Hepatocyte; settings: read-out: ERH
[7] = Ratio of AUC (0 to 24 hrs) in liver to plasma in Sprague-Dawley rat at 30 mg/kg, po by HPLC-MS/MS analysis; format: ADME, organism-based; set-up: dose 30 mg/kg, route oral; settings: Sprague-Dawley, liver and plasma, read-out: Ratio AUC
[8] = Plasma clearance in rat assessed as extraction ratio; format: ADME, organism-based; settings: read-out: ERH
[9] = Permeability from apical to basolateral side of human Caco2 cells; format: ADME, cell-based; settings: Caco-2, read-out: permeability
[10] = Metabolic stability in dog hepatocytes assessed as extraction ratio at 1 uM; format: ADME, cell-based, Canis lupus familiaris, Hepatocyte; settings: read-out: ERH
[11] = Efflux ratio of permeability from basolateral to apical side over apical to basolateral side in human Caco2 cells; format: ADME, cell-based; settings: Caco-2
[12] = Aqueous solubility of the compound at pH 7.4 by modified shake-flask method; format: physicochemical
[13] = AUC (0 to 24 hrs) in Sprague-Dawley rat liver at 30 mg/kg, po by HPLC-MS/MS analysis; format: ADME, organism-based; set-up: time < 24 hr, dose 30 mg/kg, route oral
[14] = AUC (0 to 24 hrs) in Sprague-Dawley rat plasma at 30 mg/kg, po by HPLC-MS/MS analysis; format: ADME, organism-based; set-up: time < 24 hr, dose 30 mg/kg, route oral
[15] = Aqueous solubility of the compound at pH 1.2 by modified shake-flask method; format: physicochemical

| Structure (SMILES) | hepatic extraction ratio at 1 µM [1] | hepatic extraction ratio at 1 µM [2] | solubility thermodynamic [3] | EC50 (Hepatitis C virus) | IC50 [4] | Vdss (Rattus norvegicus) | logD [5] | hepatic extraction ratio at 1 µM [6] | Kp [7] | hepatic extraction ratio [8] | Papp A→B [9] | hepatic extraction ratio at 1 µM [10] | efflux ratio [11] | solubility thermodynamic [12] | AUC(0-t) at 24 h [13] | AUC(0-t) at 24 h [14] | solubility thermodynamic [15] |
| --- | --- | --- | --- | --- | --- | --- | --- | --- | --- | --- | --- | --- | --- | --- | --- | --- | --- |
| CN(C)S(=O)(=O)NC(=O)[C@@]12C[C@H]1/C=C\CCCCC[C@H](NC(=O)OC(C)(C)C)C(=O)N1C[C@H](OC(=O)N3Cc4ccccc4C3)C[C@H]1C(=O)N2 | 0.16 | 0.56 | 165 µg/mL (≈ 230 µM) | 2.8 nM | 2.5 nM | 2.583 L/kg | 2.5 | 0.56 | 132 | > 1 | < 2 ×10⁻⁶ cm/s | 0.16 | > 2 | > 1000 µg/mL | 136000 ng·h/mL | 1030 ng·h/mL | 0.5 µg/mL (≈ 0.697 µM) |
| CC(C)(C)OC(=O)N[C@H]1CCCCC/C=C\[C@@H]2C[C@@]2(C(=O)NS(=O)(=O)C2CC2)NC(=O)[C@@H]2C[C@@H](OC(=O)N3Cc4ccccc4C3)CN2C1=O | 0.01 | 0.65 | 702 µg/mL (≈ 983 µM) | 2 nM | 1.2 nM | 0.089 L/kg | 2.4 | 0.28 | 1.2 | 0.06 | < 2 ×10⁻⁶ cm/s | 0.33 | > 2 | > 1000 µg/mL | 40300 ng·h/mL | 32900 ng·h/mL | 0.5 µg/mL (≈ 0.7 µM) |
